System: term pregnant, nulliparous women with an unripe cervix
Experiment: Clinical phase II trial PPL17 (Parts A and B), subcutaneous tafoxiparin vs placebo
Type: in vivo, human
Conditions: for proportion of women achieving spontaneous onset of labor: placebo 28.7%, FIG. 1; for Labor induced, number of subjects: onset of labor with intervention; for Labor induced with PGE-1, percent of subjects: placebo 10.2%; for Labor induced with amniotomy, percent of subjects: placebo 56.8%; for Labor induction with Balloon catheter, percent of subjects: placebo 58.0%; for Labor induced, percent of subjects: placebo 70.5%
Experimental: A clinical phase II trial is performed as a randomized, double-blind, placebo-controlled, parallel-group proof of concept study (Part A) with a conditional dose finding follow up study (Part B) to evaluate the efficacy, safety, tolerability and dose response of subcutaneously administered tafoxiparin as a supplement to induction therapy in term pregnant, nulliparous women with an unripe cervix. The study is performed in Sweden and Finland (PPL17), and an EMA (European Medicines Agency) description of the study can be found on the EU Clinical Trials Register web (www.clinicaltrialsregister.eu/ctr-search/search?query=PPL17).
A total of 170 term pregnant women are randomized to receive either 300 mg of tafoxiparin, or corresponding placebo (vehicle), administered subcutaneously every 24±3 hours and up to a total of 7 doses, or until partus (Part A).
In the dose finding follow up study (Part B), a total of 164 term pregnant women are randomized to receive either 75 or 150 mg of tafoxiparin administered subcutaneously every 24±3 hours […] and up to a total of 7 doses, or until partus.
To assess the efficacy of tafoxiparin on cervical ripening/cervical ripening rate, during and up to the first seven days of treatment, measured by Bishop score. All women must be examined to check the cervical state before enrollment.
Time from start of treatment to increase in Bishop score of ≥2 points or spontaneous onset of labor, whichever comes first. Time from start of treatment to increase in Bishop score of ≥3 points or spontaneous onset of labor, whichever comes first. Time from start of treatment to increase in Bishop score of ≥4 points or spontaneous onset of labor, whichever comes first.
Cervical ripening as measured by change from baseline to end of treatment in Bishop Score. Time from onset of labor to partus, where onset of labor is defined as last record of 4 cm cervical dilatation visualized in the partogram and progress of labor, or last record of 4 cm of cervical dilatation in combination with amniotomy and intravenous administration oxytocin.
Proportion of women with spontaneous onset of labor (Response group I).
Tafoxiparin/Placebo is supplied by Dilafor AB to the site as kits designed to constitute 300 mg of tafoxiparin or placebo for daily administration. Apart from the active substance, each ml of study drug will constitute 0.015 M phosphate buffer. The study medication kit for each patient will contain 8 doses consisting of 2 vials containing a minimum extractable volume of 1.6 ml of 150 mg/ml of tafoxiparin or placebo. One dose is a reserve dose in case a dose is rendered unusable. The investigational product should be administered subcutaneously every 24±3hours by the site staff for up to 7 doses, or until partus. At each dosing time 1.0 ml of the drug will be extracted from each of the 2 vials and injected as separate s.c. injections in the abdominal or hip region.
Tafoxiparin/Placebo is supplied by Dilafor AB to the site as kits designed to constitute 75 or 150 mg of tafoxiparin for daily administration. Apart from the active substance, each ml of study drug will constitute 0.015 M phosphate buffer. The study medication kit for each patient will contain 8 doses consisting of 2 vials for each injection occasion containing a minimum extractable volume of 1.6 ml of 150 mg/ml of tafoxiparin or placebo. For subjects receiving 75 mg of tafoxiparin, one vial will contain active substance and one containing placebo. For subjects receiving 150 mg of tafoxiparin, both vials will contain active substance. One dose is a reserve dose in case a dose is rendered unusable. The investigational product should be administered subcutaneously every 24±3 hours by the site staff for up to 7 doses, or until partus. At each dosing time, 0.5 ml of the drug will be extracted from each of the 2 vials and injected as separate s.c. injections in the abdominal or hip region. […]

[1] = 75 mg, n = 83, listed as tafoxiparin

Substance: tafoxiparin
- proportion of women achieving spontaneous onset of labor (75 mg daily s.c., of 82 women, p 0.102): 40.2%
- number of subjects (women) that reach spontaneous onset of labor (75 mg, Study day 1, n=33): 0
- percent of subjects (women) that reach spontaneous onset of labor (75 mg, Study day 1, n=33): (0%)
- number of subjects (women) that reach spontaneous onset of labor (75 mg, Study day 2, n=33): 3
- percent of subjects (women) that reach spontaneous onset of labor (75 mg, Study day 2, n=33): (9%)
- number of subjects (women) that reach spontaneous onset of labor (75 mg, Study day 3, n=33): 6
- percent of subjects (women) that reach spontaneous onset of labor (75 mg, Study day 3, n=33): (18%)
- number of subjects (women) that reach spontaneous onset of labor (75 mg, Study day 4, n=33): 11
- percent of subjects (women) that reach spontaneous onset of labor (75 mg, Study day 4, n=33): (33%)
- number of subjects (women) that reach spontaneous onset of labor (75 mg, Study day 5, n=33): 22
- percent of subjects (women) that reach spontaneous onset of labor (75 mg, Study day 5, n=33): (67%)
- number of subjects (women) that reach spontaneous onset of labor (75 mg, Study day 6, n=33): 25
- percent of subjects (women) that reach spontaneous onset of labor (75 mg, Study day 6, n=33): (76%)
- number of subjects (women) that reach spontaneous onset of labor (75 mg, Study day 7, n=33): 32
- percent of subjects (women) that reach spontaneous onset of labor (75 mg, Study day 7, n=33): (97%)
- number of subjects (women) that reach spontaneous onset of labor (75 mg, Study day 8, n=33): 33
- percent of subjects (women) that reach spontaneous onset of labor (75 mg, Study day 8, n=33): (100%)
- Fetal distress as indication for operative delivery (ODFD), number of patients (75 mg, n = 83): 16
- Labor induced with PGE-1, number of subjects (75 mg, n = 83): 7
- Labor induced with amniotomy, number of subjects (75 mg, n = 83): 46
- Labor induced with oxytocin, number of subjects (75 mg, n = 83): 34
- Labor induction with Balloon catheter, number of subjects (75 mg, n = 83): 35
- Labor induced, number of subjects (75 mg, n = 83): 48
- Labor induced with PGE-1, percent of subjects (75 mg, n = 83): (8.4%)
- Labor induced with PGE-1, percent of subjects [1]: 8.4%
- Fetal distress as indication for operative delivery (ODFD), percent of patients (75 mg, n = 83, placebo 22.7%): 19.3%
- Percent of patients with operative delivery (75 mg, n = 83, placebo 45.5%): 38.6%
- Labor induced with oxytocin, percent of subjects (75 mg, n = 83, placebo 54.5%): (41.0%)
- Labor induced with oxytocin, percent of subjects (75 mg, n = 83, placebo 54.5%, listed as tafoxiparin): 41.0%
- Labor induced with amniotomy, percent of subjects (75 mg, n = 83): (55.4%)
- Labor induced with amniotomy, percent of subjects [1]: 55.4%
- Labor induction with Balloon catheter, percent of subjects (75 mg, n = 83): (42.2%)
- Labor induction with Balloon catheter, percent of subjects [1]: 42.2%
- Labor induced, percent of subjects (75 mg, n = 83): (57.8%)
- Labor induced, percent of subjects [1]: 57.8%
- number of women reaching spontaneous onset of labor with uncomplicated delivery (75 mg, of 29 women): 22 women
- proportion of women reaching spontaneous onset of labor with uncomplicated delivery (75 mg, of 29 women, placebo 54.5%): 75.9%
- number of women needing instrumental delivery or caesarian section to reach partus (75 mg, of 33 women): 11 women
- number reaching partus by vaginal delivery with no need for instrumental delivery nor caesarian section (75 mg, of 33 women): 22 women
- number of women achieving spontaneous onset of labor (75 mg, of 82 women): 33 women
- number of women needing instrumental delivery (75 mg, spontaneous onset of labor, of 29 women): 7 women
- proportion reaching partus by vaginal delivery with no need for instrumental delivery nor caesarian section (75 mg, women with spontaneous onset of labor, of 33, placebo 48%, FIG. 5): 66.7%
- proportion of women needing instrumental delivery or caesarian section to reach partus (75 mg, women with spontaneous onset of labor, of 33, placebo 52%, FIG. 5): 33.3%
- proportion of women needing instrumental delivery (75 mg, women with spontaneous onset of labor, vaginal mode of partus, of 29, p=0.181, placebo 45.5%, FIG. 4): 24.1%
- proportion of women achieving spontaneous onset of labor (150 mg daily s.c., of 85 women, p 0.039): 42.4%
- number of subjects (women) that reach spontaneous onset of labor (150 mg, Study day 1, n=36): 0
- percent of subjects (women) that reach spontaneous onset of labor (150 mg, Study day 1, n=36): (0%)
- number of subjects (women) that reach spontaneous onset of labor (150 mg, Study day 2, n=36): 4
- percent of subjects (women) that reach spontaneous onset of labor (150 mg, Study day 2, n=36): (11%)
- number of subjects (women) that reach spontaneous onset of labor (150 mg, Study day 3, n=36): 15
- percent of subjects (women) that reach spontaneous onset of labor (150 mg, Study day 3, n=36): (42%)
- number of subjects (women) that reach spontaneous onset of labor (150 mg, Study day 4, n=36): 19
- percent of subjects (women) that reach spontaneous onset of labor (150 mg, Study day 4, n=36): (53%)
- number of subjects (women) that reach spontaneous onset of labor (150 mg, Study day 5, n=36): 26
- percent of subjects (women) that reach spontaneous onset of labor (150 mg, Study day 5, n=36): (72%)
- number of subjects (women) that reach spontaneous onset of labor (150 mg, Study day 6, n=36): 30
- percent of subjects (women) that reach spontaneous onset of labor (150 mg, Study day 6, n=36): (83%)
- number of subjects (women) that reach spontaneous onset of labor (150 mg, Study day 7, n=36): 34
- percent of subjects (women) that reach spontaneous onset of labor (150 mg, Study day 7, n=36): (94%)
- number of subjects (women) that reach spontaneous onset of labor (150 mg, Study day 8, n=36): 35
- percent of subjects (women) that reach spontaneous onset of labor (150 mg, Study day 8, n=36): (97%)
- number of subjects (women) that reach spontaneous onset of labor (150 mg, Study day 9, n=36): 36
- percent of subjects (women) that reach spontaneous onset of labor (150 mg, Study day 9, n=36): (100%)
- Fetal distress as indication for operative delivery (ODFD), number of patients (150 mg, n = 85): 20
- Labor induced with PGE-1, number of subjects (150 mg, n = 85): 7
- Labor induced with amniotomy, number of subjects (150 mg, n = 85): 39
- Labor induced with oxytocin, number of subjects (150 mg, n = 85): 38
- Labor induction with Balloon catheter, number of subjects (150 mg, n = 85): 37
- Labor induced, number of subjects (150 mg, n = 85): 48
- Labor induced with PGE-1, percent of subjects (150 mg, n = 85): (8.2%)

Source: patent US20250360160A1, “NEW MEDICAL USE OF TAFOXIPARIN” (DILAFOR AB, priority 2022, published 2025)
